The source made the active and inactive calls. The calls are words filed in the database; no cut-off is given here.
Experiments:
Format in all cases: functional, cell-based
[1] = target: Metabotropic glutamate receptor 2 (Rattus norvegicus) (UniProt P31421); test: Positive allosteric modulatory activity at rat mGlu2 receptor transfected in HEK293 cells co-expressing mouse Galpha15 assessed as potentiation of glutamate-dependent calcium signaling at 3 uM by fluorescence plate reader analysis in presence of glutamate at EC20 concentration
Chain of Metabotropic glutamate receptor 2 (Rattus norvegicus) (P31421 19-872 limits assumed): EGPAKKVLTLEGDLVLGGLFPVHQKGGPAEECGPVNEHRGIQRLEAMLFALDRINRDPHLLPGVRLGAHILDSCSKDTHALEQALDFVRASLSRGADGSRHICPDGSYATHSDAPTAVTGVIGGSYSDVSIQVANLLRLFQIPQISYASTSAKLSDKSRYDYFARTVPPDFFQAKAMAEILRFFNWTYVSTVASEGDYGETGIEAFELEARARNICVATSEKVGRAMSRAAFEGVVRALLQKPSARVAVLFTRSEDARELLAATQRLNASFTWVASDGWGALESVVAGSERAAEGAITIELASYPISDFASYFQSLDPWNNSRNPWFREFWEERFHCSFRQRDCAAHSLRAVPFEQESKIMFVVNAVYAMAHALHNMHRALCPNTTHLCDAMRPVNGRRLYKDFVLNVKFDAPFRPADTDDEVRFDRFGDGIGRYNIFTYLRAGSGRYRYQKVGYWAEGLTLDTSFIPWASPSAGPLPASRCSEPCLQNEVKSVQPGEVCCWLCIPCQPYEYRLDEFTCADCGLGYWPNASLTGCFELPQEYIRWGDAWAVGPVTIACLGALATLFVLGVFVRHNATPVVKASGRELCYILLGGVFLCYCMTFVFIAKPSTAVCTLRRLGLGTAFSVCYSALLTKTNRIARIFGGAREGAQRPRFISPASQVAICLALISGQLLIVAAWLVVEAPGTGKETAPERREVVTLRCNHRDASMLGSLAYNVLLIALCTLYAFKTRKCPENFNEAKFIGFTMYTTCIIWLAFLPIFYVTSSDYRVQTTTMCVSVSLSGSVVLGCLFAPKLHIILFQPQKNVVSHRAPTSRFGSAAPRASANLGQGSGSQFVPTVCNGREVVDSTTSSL

[2] = target: Metabotropic glutamate receptor 3 (Rattus norvegicus) (UniProt P31422); test: Inhibition of rat mGlu3 receptor transfected in HEK293 cells coexpressing mouse Galpha15 assessed as decrease in glutamate-induced calcium signaling at 3 uM by fluorescence plate reader analysis in presence of glutamate at EC87 concentration
Chain of Metabotropic glutamate receptor 3 (Rattus norvegicus) (P31422 23-879 limits assumed): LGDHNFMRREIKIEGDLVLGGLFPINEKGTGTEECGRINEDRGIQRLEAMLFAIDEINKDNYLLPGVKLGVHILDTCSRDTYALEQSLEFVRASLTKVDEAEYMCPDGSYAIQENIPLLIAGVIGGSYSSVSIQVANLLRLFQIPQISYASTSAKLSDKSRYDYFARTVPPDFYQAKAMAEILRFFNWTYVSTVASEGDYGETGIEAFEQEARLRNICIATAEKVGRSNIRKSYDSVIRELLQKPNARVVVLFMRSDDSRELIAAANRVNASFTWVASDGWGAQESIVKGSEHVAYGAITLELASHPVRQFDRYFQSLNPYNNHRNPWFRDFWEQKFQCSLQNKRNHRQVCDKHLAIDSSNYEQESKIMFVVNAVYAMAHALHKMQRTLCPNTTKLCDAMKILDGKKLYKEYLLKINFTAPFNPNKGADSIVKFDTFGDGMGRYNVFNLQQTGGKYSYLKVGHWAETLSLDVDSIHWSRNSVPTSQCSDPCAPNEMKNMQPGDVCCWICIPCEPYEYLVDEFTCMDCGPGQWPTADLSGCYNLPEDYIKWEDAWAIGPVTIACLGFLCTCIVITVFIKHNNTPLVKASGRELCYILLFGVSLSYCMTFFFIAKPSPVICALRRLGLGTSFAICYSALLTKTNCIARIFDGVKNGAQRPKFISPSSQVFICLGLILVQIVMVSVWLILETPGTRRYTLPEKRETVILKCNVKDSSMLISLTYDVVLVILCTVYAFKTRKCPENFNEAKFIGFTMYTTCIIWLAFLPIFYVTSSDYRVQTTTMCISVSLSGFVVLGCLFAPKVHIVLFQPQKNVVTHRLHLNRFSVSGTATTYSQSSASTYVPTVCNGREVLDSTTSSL

[3] = target: Metabotropic glutamate receptor 2 (Rattus norvegicus) (UniProt P31421); test: Inhibition of rat mGlu2 receptor transfected in HEK293 cells coexpressing mouse Galpha15 assessed as decrease in glutamate-induced calcium signaling at 3 uM by fluorescence plate reader analysis in presence of glutamate at EC76 concentration
[4] = target: Metabotropic glutamate receptor 3 (Rattus norvegicus) (UniProt P31422); test: Positive allosteric modulatory activity at rat mGlu3 receptor transfected in HEK293 cells co-expressing mouse Galpha15 assessed as potentiation of glutamate-dependent calcium signaling at 3 uM by fluorescence plate reader analysis in presence of glutamate at EC20 concentration
[5] = target: Metabotropic glutamate receptor 3 (Rattus norvegicus, UniProt P31422); test: Inhibition of rat mGlu3 receptor transfected in HEK293 cells coexpressing mouse Galpha15 assessed as decrease in glutamate-induced calcium signaling by fluorescence plate reader analysis in presence of glutamate at EC87 concentration
Chain of Metabotropic glutamate receptor 3 (P31422 whole entry): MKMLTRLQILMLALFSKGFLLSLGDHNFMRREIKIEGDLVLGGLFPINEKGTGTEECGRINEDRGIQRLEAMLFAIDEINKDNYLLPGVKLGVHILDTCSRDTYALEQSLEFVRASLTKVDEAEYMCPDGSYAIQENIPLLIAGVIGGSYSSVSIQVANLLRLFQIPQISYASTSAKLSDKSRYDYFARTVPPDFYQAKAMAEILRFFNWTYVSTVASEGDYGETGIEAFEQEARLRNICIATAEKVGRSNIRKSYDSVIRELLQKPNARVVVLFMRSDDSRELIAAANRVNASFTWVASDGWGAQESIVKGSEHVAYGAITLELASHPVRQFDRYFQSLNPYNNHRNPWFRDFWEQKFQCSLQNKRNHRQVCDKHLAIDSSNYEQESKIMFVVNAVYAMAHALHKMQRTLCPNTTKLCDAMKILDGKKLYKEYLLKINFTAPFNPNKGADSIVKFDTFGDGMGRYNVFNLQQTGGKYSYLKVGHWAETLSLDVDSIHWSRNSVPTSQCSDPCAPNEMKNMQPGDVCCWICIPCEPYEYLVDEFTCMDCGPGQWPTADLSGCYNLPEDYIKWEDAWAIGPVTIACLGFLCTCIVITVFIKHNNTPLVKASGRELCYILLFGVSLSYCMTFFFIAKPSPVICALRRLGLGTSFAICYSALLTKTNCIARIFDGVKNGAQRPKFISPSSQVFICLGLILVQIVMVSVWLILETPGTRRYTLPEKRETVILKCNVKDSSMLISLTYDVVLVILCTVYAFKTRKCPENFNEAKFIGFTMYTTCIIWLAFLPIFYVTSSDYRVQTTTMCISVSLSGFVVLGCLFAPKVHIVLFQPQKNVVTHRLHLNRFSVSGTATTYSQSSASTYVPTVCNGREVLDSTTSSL

[6] = target: Metabotropic glutamate receptor 2 (Rattus norvegicus, UniProt P31421); test: Inhibition of rat mGlu2 receptor transfected in HEK293 cells coexpressing mouse Galpha15 assessed as decrease in glutamate-induced calcium signaling by fluorescence plate reader analysis in presence of glutamate at EC76 concentration
Chain of Metabotropic glutamate receptor 2 (P31421 whole entry): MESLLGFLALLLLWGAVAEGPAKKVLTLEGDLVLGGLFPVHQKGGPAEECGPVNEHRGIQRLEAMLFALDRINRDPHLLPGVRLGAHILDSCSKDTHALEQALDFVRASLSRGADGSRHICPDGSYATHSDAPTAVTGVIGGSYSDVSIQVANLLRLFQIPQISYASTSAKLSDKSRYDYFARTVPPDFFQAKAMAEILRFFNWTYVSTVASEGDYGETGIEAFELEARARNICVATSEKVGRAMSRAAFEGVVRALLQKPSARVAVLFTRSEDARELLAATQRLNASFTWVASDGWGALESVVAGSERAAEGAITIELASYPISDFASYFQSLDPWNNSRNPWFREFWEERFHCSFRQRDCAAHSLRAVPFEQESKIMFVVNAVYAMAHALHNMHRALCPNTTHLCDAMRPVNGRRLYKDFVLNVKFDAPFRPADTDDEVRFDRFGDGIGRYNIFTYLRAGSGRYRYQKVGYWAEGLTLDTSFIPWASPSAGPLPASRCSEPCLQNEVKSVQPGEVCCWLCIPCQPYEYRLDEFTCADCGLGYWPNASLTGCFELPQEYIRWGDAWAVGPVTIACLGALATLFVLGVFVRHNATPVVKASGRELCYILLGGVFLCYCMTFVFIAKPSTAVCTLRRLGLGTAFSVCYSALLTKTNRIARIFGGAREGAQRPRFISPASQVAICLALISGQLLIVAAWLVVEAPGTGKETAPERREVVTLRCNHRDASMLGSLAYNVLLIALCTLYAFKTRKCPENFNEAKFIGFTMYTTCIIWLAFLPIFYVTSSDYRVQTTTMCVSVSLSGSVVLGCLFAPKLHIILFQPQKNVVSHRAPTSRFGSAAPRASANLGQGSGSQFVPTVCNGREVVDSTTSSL

[7] = target: Metabotropic glutamate receptor 2 (Rattus norvegicus) (UniProt P31421); test: Inhibition of rat mGlu2 receptor transfected in HEK293 cells coexpressing mouse Galpha15 assessed as decrease in glutamate-induced calcium signaling at 1 uM by fluorescence plate reader analysis in presence of glutamate at EC76 concentration
[8] = target: Metabotropic glutamate receptor 3 (Rattus norvegicus) (UniProt P31422); test: Inhibition of rat mGlu3 receptor transfected in HEK293 cells coexpressing mouse Galpha15 assessed as decrease in glutamate-induced calcium signaling at 1 uM by fluorescence plate reader analysis in presence of glutamate at EC87 concentration

Row | Structure (SMILES) | Activity [1] | inhibition [2] [%] | inhibition [3] [%] | Activity [4] | IC50 [5] [nM] | IC50 [6] [nM] | inhibition [7] [%] | inhibition [8] [%]
1 | Cc1ccc2c(=O)n(C)c3cc(-c4ccccc4)nn3c2c1 | inactive | 59 | 17 | inactive |  |  |  | 
2 | COc1ccc(-c2ccc3c(=O)n(C)c4cc(-c5cccc(C)c5)nn4c3c2)cc1 | inactive | 34 | 0 | inactive |  |  |  | 
3 | Cc1ccc2c(=O)n(C)c3cc(-c4cccc(F)c4)nn3c2c1 | inactive | 38 | 16 | inactive |  |  |  | 
4 | O=c1[nH]c2cc(-c3ccccc3)nn2c2cc(-c3ccccc3)ccc12 |  | 6 | 2 |  |  |  |  | 
5 | Cn1c(=O)c2ccc(-c3cccc(S(N)(=O)=O)c3)cc2n2nc(-c3ccccc3)cc12 | inactive |  |  | inactive | 884 |  |  | 
6 | Cn1c(=O)c2ccc(-c3cccc(S(N)(=O)=O)c3)cc2n2nc(-c3cccc(F)c3)cc12 | inactive |  |  | inactive | > 10000 | > 10000 |  | 
7 | COc1ccc(-c2ccc3c(=O)n(C)c4cc(-c5ccc(F)cc5)nn4c3c2)cc1 | inactive |  |  | inactive | > 10000 | > 10000 |  | 
8 | COc1ccc(-c2ccc3c(=O)n(C)c4cc(-c5cccc(Cl)c5)nn4c3c2)cc1 | inactive | 31 | 9 | inactive |  |  |  | 
9 | Cn1c(=O)c2ccc(-c3cccc(S(N)(=O)=O)c3)cc2n2nc(-c3ccc(Cl)cc3)cc12 | inactive |  |  | inactive | 1250 | 847 | 60 | 60
10 | O=c1[nH]c2cc(-c3ccccc3)nn2c2cc(-c3cccnc3)ccc12 |  | 8 | 4 |  |  |  |  | 
11 | COc1ccc(-c2ccc3c(=O)n(C)c4cc(-c5cccc(F)c5)nn4c3c2)cc1 | inactive | 2 | 6 | inactive |  |  |  | 
12 | Cn1c(=O)c2ccc(-c3cccc(S(N)(=O)=O)c3)cc2n2nc(-c3ccc(F)cc3)cc12 | inactive |  |  | inactive | 1990 | 3950 |  | 
13 | COc1cccc(-c2cc3n(C)c(=O)c4ccc(C)cc4n3n2)c1 | inactive |  |  | inactive | > 10000 | > 10000 |  | 
14 | O=c1c2ccc(-c3ccccc3)cc2n2nc(-c3ccccc3)cc2n1CCO |  | 3 | 0 |  |  |  |  | 
15 | Cn1c(=O)c2ccc(-c3ccc4cc[nH]c4c3)cc2n2nc(-c3ccccc3)cc12 |  | 34 | 9 |  |  |  |  | 
16 | Cn1c(=O)c2ccc(-c3cnc4ccccc4c3)cc2n2nc(-c3ccccc3)cc12 |  | 33 | 4 |  |  |  |  | 
17 | COc1ccc(-c2ccc3c(=O)n(C)c4cc(-c5ccccc5)nn4c3c2)cc1 | inactive | 0 |  | inactive |  |  |  | 
18 | Cn1c(=O)c2ccc(-c3ccccc3)cc2n2nc(-c3ccccc3)cc12 | inactive |  |  | inactive | > 10000 | > 10000 |  | 
19 | Cc1ccc2c(=O)n(C)c3cc(-c4ccc(Cl)cc4)nn3c2c1 | inactive | 33 | 11 | inactive |  |  | 60 | 60
20 | Cn1c(=O)c2ccc(-c3ccccc3)cc2n2nc(-c3ccc(F)cc3)cc12 | inactive | 64 | 12 | inactive |  |  |  | 
21 | Cc1ccc2c(=O)n(C)c3cc(-c4ccc(F)cc4)nn3c2c1 | inactive |  |  | inactive | > 10000 | > 10000 |  | 
22 | COc1ccc(-c2ccc3c(=O)n(C)c4cc(-c5ccc(Cl)cc5)nn4c3c2)cc1 | inactive | 21 | 6 | inactive |  |  | 60 | 60
23 | CC(=O)n1c(=O)c2ccc(-c3ccccc3)cc2n2nc(-c3ccccc3)cc12 |  | 8 | 3 |  |  |  |  | 
24 | COc1cccc(-c2cc3n(C)c(=O)c4ccc(-c5cccc(S(N)(=O)=O)c5)cc4n3n2)c1 | inactive |  |  | inactive | 696 | 1390 |  | 
25 | COc1ccc(-c2ccc3c(=O)n(C)c4cc(-c5cccc(OC)c5)nn4c3c2)cc1 | inactive | 48 | 6 | inactive |  |  |  | 
26 | Cn1c(=O)c2ccc(-c3ccc4nccnc4c3)cc2n2nc(-c3ccccc3)cc12 |  | 16 | 0 |  |  |  |  | 

Other lines, results leading:

Row | Activity [1] | inhibition [2] [%] | inhibition [3] [%] | Activity [4] | IC50 [5] [nM] | IC50 [6] [nM] | inhibition [7] [%] | inhibition [8] [%] | Structure (SMILES)
27 | inactive |  |  | inactive | 165 | 852 |  |  | Cn1c(=O)c2ccc(-c3cccnc3)cc2n2nc(-c3ccccc3)cc12
28 | inactive | 23 | 4 | inactive |  |  |  |  | COc1ccc(-c2ccc3c(=O)n(C)c4cc(-c5cccc(Br)c5)nn4c3c2)cc1
29 |  |  |  |  | 509 | 1770 |  |  | Cn1c(=O)c2ccc(-c3ccncc3)cc2n2nc(-c3ccccc3)cc12
30 | inactive |  |  | inactive | 1180 | 3120 |  |  | COc1cccc(-c2cc3n(C)c(=O)c4ccc(-c5cccnc5)cc4n3n2)c1
31 |  |  |  |  | 3150 | 4650 |  |  | O=c1c2ccc(-c3cccnc3)cc2n2nc(-c3ccccc3)cc2n1CCO
32 | inactive | 19 | 7 | inactive |  |  |  |  | Cn1c(=O)c2ccc(-c3ccccc3)cc2n2nc(-c3cccc(Cl)c3)cc12
33 | inactive |  |  | inactive | > 10000 | > 10000 |  |  | COc1cccc(-c2cc3n(C)c(=O)c4ccc(-c5ccccc5)cc4n3n2)c1
34 | inactive |  |  | inactive | 293 | 564 |  |  | Cn1c(=O)c2ccc(-c3cccnc3)cc2n2nc(-c3cccc(Cl)c3)cc12
35 | inactive |  |  | inactive | 247 | 1560 |  |  | Cn1c(=O)c2ccc(-c3cccnc3)cc2n2nc(-c3cccc(F)c3)cc12
36 | inactive |  |  | inactive | 530 | 1790 |  |  | Cc1cccc(-c2cc3n(C)c(=O)c4ccc(-c5cccnc5)cc4n3n2)c1
37 | inactive |  |  | inactive | 645 | 1110 | 60 | 60 | Cn1c(=O)c2ccc(-c3cccnc3)cc2n2nc(-c3ccc(Cl)cc3)cc12
38 | inactive | 39 | 2 | inactive |  |  |  |  | Cn1c(=O)c2ccc(-c3ccccc3)cc2n2nc(-c3cccc(F)c3)cc12
39 |  |  |  |  | > 10000 | > 10000 |  |  | CC(=O)n1c(=O)c2ccc(-c3cccnc3)cc2n2nc(-c3ccccc3)cc12
40 | inactive | 49 | 7 | inactive |  |  |  |  | Cc1cccc(-c2cc3n(C)c(=O)c4ccc(-c5ccccc5)cc4n3n2)c1
41 |  |  |  |  | > 10000 | > 10000 |  |  | Cn1c(=O)c2ccc(-c3ccc4cn[nH]c4c3)cc2n2nc(-c3ccccc3)cc12
42 | inactive |  |  | inactive | 67 | 427 |  |  | Cn1c(=O)c2ccc(-c3cccnc3)cc2n2nc(-c3ccc(F)cc3)cc12
43 | inactive |  |  | inactive | > 10000 | > 10000 |  |  | Cn1c(=O)c2ccc(-c3cccnc3)cc2n2nc(-c3cccc(Br)c3)cc12
44 | inactive | 31 | 4 | inactive |  |  | 60 | 60 | Cn1c(=O)c2ccc(-c3ccccc3)cc2n2nc(-c3ccc(Cl)cc3)cc12
45 |  |  |  |  | 4510 | > 10000 |  |  | Cn1c(=O)c2ccc(-c3ccc4ccncc4c3)cc2n2nc(-c3ccccc3)cc12
46 | inactive | 28 | 8 | inactive |  |  |  |  | Cn1c(=O)c2ccc(-c3ccccc3)cc2n2nc(-c3cccc(Br)c3)cc12

Reference: ChEMBL document CHEMBL3286359, “Synthesis and SAR of substituted pyrazolo[1,5-a]quinazolines as dual mGlu(2)/mGlu(3) NAMs” (Bioorg Med Chem Lett, 2014)
